Assay results: US7754765B2, “Copper chelators for treating ocular inflammation” (Radical Vision Therapeutics Inc, priority 2000, dated 2010)

Key:
retina [1] = assay: Retinal thickness (edema) after laser photocoagulation in rats; format: in vivo, Long-Evans rats; settings: 0.5 mmol/kg/day intraperitoneally; for retinal thickness, greater than that in normal retina: saline control 50%; for retinal thickness (edema) compared with control (saline injected), in words: day 1 post photocoagulation
retina [2] = assay: Retinal thickness (edema) after PDT (verteporfin) in rabbits; format: in vivo, Pigmented rabbits; settings: for retinal thickness, greater than that in normal retina: 24 hours after PDT, 0.2 mmol/kg/day intramuscularly, saline control 140%; for retinal thickness (edema) compared with control (saline injected), in words: day 1 post PDT, TRIEN or TETREN (0.2 mM/day)
[3] = test system: ED-1 immunoreactive (macrophage) cells in retina; assay: ED-1 (macrophage) immunostaining of retina after photocoagulation in rats; format: in vivo; settings: vs saline injected; for number of ED-1 positive retina cells relative to controls (in words): 24 hours after laser treatment; for number of ED-1 positive cells, times less than control: Day 1 post photocoagulation, average of four 40× objective fields

| SMILES | retinal thickness, greater than that in normal retina (retina [1]; 24 hours post photocoagulation) [%] | retinal thickness (edema) compared with control (saline injected), in words (retina [1]) | retinal thickness, greater than that in normal retina (retina [2]) [%] | retinal thickness (edema) compared with control (saline injected), in words (retina [2]) | number of ED-1 positive retina cells relative to controls (in words) [3] | number of ED-1 positive cells, times less than control [3] | retinal thickness, greater than that in the control animals (saline injected) (retina [1]; 24 hours post photocoagulation) [%] | retinal thickness (edema) compared with control (saline injected), in words (retina [1]; listed as DPA) |
| --- | --- | --- | --- | --- | --- | --- | --- | --- |
| NCCNCCNCCN [TRIEN, triethylenetetramine] | 23 | retinal thickness of eyes from control animals (saline injected) is greater | 50 | significantly less than that in control | approximately half that of the controls | two times less |  |  |
| CC(C)(S)[C@@H](N)C(=O)O [D-PA, D-penicillamine] | 85 | greater than that in control eyes |  |  |  |  | 35 | showed the opposite effect |
| NCCNCCNCCNCCN [TETREN, tetraethylenepentamine] | 26 | retinal thickness of eyes from control animals (saline injected) is greater | 45 | significantly less than that in control | more than half that of control animals | 2.5 times |  |  |
